How the values were obtained:
[1] = system: NK-92 (IL-2 2.5 ng/mL); assay: drug sensitivity score (DSS) (DSS units); higher = more sensitive; extreme values may be limits of the assay; details: 72 h
[2] = system: normal primary NK cells, pool 1 (3 donors) (IL-2 2.5 ng/mL); assay: as above; details: 72 h
[3] = system: normal primary NK cells, pool 3 (3 donors) (IL-2 2.5 ng/mL); assay: as above; details: 72 h
[4] = system: IMC-1 (IL-2 20 ng/mL); assay: as above; details: 72 h
[5] = system: normal primary NK cells, pool 2 (3 donors) (IL-2 2.5 ng/mL); assay: as above; details: 72 h
[6] = system: NKL (IL-2 2.5 ng/mL); assay: as above; details: 72 h
[7] = system: KAI3 (IL-2 2.5 ng/mL); assay: as above; details: 72 h
[8] = system: normal primary NK cells, pool 1 (3 donors), resting (IL-2 0 ng/mL); assay: as above; details: 72 h
[9] = system: SNK-6 (IL-2 2.5 ng/mL); assay: as above; details: 72 h
[10] = system: DERL-7 (IL-2 2.5 ng/mL); assay: as above; details: 72 h
[11] = system: YT (IL-2 2.5 ng/mL); assay: as above; details: 72 h
[12] = system: NK-YS (IL-2 2.5 ng/mL); assay: as above; details: 72 h
[13] = system: KHYG-1 (IL-2 2.5 ng/mL); assay: as above; details: 72 h
[14] = system: NK-92 (IL-2 2.5 ng/mL); assay: percent inhibition of viability; higher = more inhibition; details: 72 h
[15] = system: normal primary NK cells, pool 1 (3 donors) (IL-2 2.5 ng/mL); assay: as above; details: 72 h
[16] = system: normal primary NK cells, pool 3 (3 donors) (IL-2 2.5 ng/mL); assay: as above; details: 72 h
[17] = system: IMC-1 (IL-2 20 ng/mL); assay: as above; details: 72 h
[18] = system: normal primary NK cells, pool 2 (3 donors) (IL-2 2.5 ng/mL); assay: as above; details: 72 h
[19] = system: NKL (IL-2 2.5 ng/mL); assay: as above; details: 72 h
[20] = system: KAI3 (IL-2 2.5 ng/mL); assay: as above; details: 72 h
[21] = system: normal primary NK cells, pool 1 (3 donors), resting (IL-2 0 ng/mL); assay: as above; details: 72 h
[22] = system: SNK-6 (IL-2 2.5 ng/mL); assay: as above; details: 72 h
[23] = system: DERL-7 (IL-2 2.5 ng/mL); assay: as above; details: 72 h
[24] = system: YT (IL-2 2.5 ng/mL); assay: as above; details: 72 h
[25] = system: NK-YS (IL-2 2.5 ng/mL); assay: as above; details: 72 h
[26] = system: KHYG-1 (IL-2 2.5 ng/mL); assay: as above; details: 72 h
[27] = system: normal NK cells expanded with K562-aAPC; assay: as above; details: 72 h, IL-2 2.5 ng/mL
Protocol: (§1)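 Drug sensitivity and resistance testing on K562-aAPC-expanded normal NK cells: 5 concentrations (10-fold steps over a 10,000-fold range), 72 h at 37 °C, viability by CellTiter-Glo normalised to DMSO and benzethonium chloride controls; DSS from the fitted curve.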

[28] = system: normal NK cells expanded with K562-aAPC; assay: drug sensitivity score (DSS) (DSS units); higher = more sensitive; extreme values may be limits of the assay; details: 72 h; IL-2 2.5 ng/mL
Protocol: as §1

CNc1nc(-c2ccc3c(N)n[nH]c3c2)cc(N2C[C@@H](C(=O)NC3CCCCC3)CC[C@H]2C)n1 (max concentration tested 10000 nM)
Details | drug sensitivity score
[1] | 1.22
[2] | 3.79
[3] | 2.05
[4] | 0
[5] | 1.91
[6] | 1.31
[7] | 2.49
[8] | 2.84
[9] | 0
[10] | 13.6
[11] | 0
[12] | 0.64
[13] | 0
[28] | 5.66

percent inhibition of viability [%]
Details | 1 nM | 10 nM | 100 nM | 1000 nM | 10000 nM
[14] | -8.7 | -9.38 | -10.8 | 12.7 | 15.9
[15] | -8.1 | -7.19 | -3.29 | 25.5 | 14.9
[16] | -9.17 | -11.9 | -6.95 | 18.4 | 14.4
[17] | -3.83 | -6.62 | -4.53 | -20.3 | -19.2
[18] | -9.37 | -17 | -3.8 | 12.4 | 20.9
[19] | -8.02 | -17.1 | -8.23 | 7.46 | 19
[20] | 5.2 | 2.8 | 14.8 | 12.4 | 22.3
[21] | -13.3 | -12.7 | -3.91 | 21.5 | 9.91
[22] | -15.1 | -5.82 | -4.32 | -18.6 | -16.6
[23] | -6.71 | 4.6 | 17.5 | 62.3 | 73.1
[24] | 0.91 | -0.65 | -0.96 | -0.24 | -1.61
[25] | -0.39 | 1.82 | 1.37 | 11.8 | 12.3
[26] | 2.18 | -0.82 | 1.06 | 6.54 | 6.11
[27] | -0.16 | 0.82 | 7.33 | 29 | 34.4

COc1cc2ncnc(Oc3cccc(NC(=O)Nc4cc(C(C)(C)C(F)(F)F)on4)c3)c2cc1OC (max concentration tested 10000 nM)
Details | drug sensitivity score
[1] | 2.92
[2] | 0
[3] | 0
[4] | 0
[5] | 0
[6] | 9.3
[7] | 1.44
[8] | 0
[9] | 0
[10] | 0
[11] | 4.37
[12] | 1.47
[13] | 1.77
[28] | 3.18

percent inhibition of viability [%]
Details | 1 nM | 10 nM | 100 nM | 1000 nM | 10000 nM
[14] | -0.01 | 2.35 | -2.76 | 14.8 | 28.1
[15] | -8.45 | 9.57 | -3.9 | 2.93 | 0.51
[16] | -10.2 | 8.96 | -2.46 | -8.5 | -3.67
[17] | -1.62 | -0.53 | 0.44 | -4.34 | 6.15
[18] | -11.8 | 4.36 | -8.21 | -2.04 | -8.58
[19] | 4.1 | 2.39 | 15.8 | 41.7 | 42.7
[20] | 0.98 | -5.32 | 2.9 | 6.52 | 22.6
[21] | -30.4 | 6.49 | -14 | -6.06 | -6.31
[22] | -21 | -20.4 | -14.8 | -14.3 | -12
[23] | -5.16 | 6.23 | -3 | 4.56 | -7.99
[24] | -6.09 | 0.07 | -0.35 | 27.3 | 17.8
[25] | -5.12 | -3.89 | 6.64 | 10.2 | 22.5
[26] | -4.24 | 2.96 | 2.93 | 12.8 | 22.6
[27] | -1.51 | -5.86 | -2.54 | 20.8 | 24.9

COc1ccc(-c2cc3c(C)nc(N)nc3n([C@H]3CC[C@H](OCCO)CC3)c2=O)cn1 (max concentration tested 10000 nM)
Details | drug sensitivity score
[1] | 22.4
[2] | 11.4
[3] | 8.86
[4] | 2.72
[5] | 11
[6] | 16.6
[7] | 16.5
[8] | 14.5
[9] | 7.29
[10] | 27.6
[11] | 19.1
[12] | 14.1
[13] | 15
[28] | 11.5

percent inhibition of viability [%]
Details | 1 nM | 10 nM | 100 nM | 1000 nM | 10000 nM
[14] | 16.6 | 20.7 | 49.1 | 75.7 | 97.2
[15] | -2.26 | 7.17 | 28.9 | 35.8 | 99.4
[16] | 5.05 | 8.38 | 19.9 | 31.5 | 96.7
[17] | -2.45 | -13.7 | -14.2 | -15.4 | 64.2
[18] | -0.57 | 7.93 | 21.5 | 39.9 | 96.6
[19] | -11.1 | 4.69 | 32.7 | 66.2 | 93.9
[20] | 1.74 | 8.43 | 34.4 | 63.8 | 82.1
[21] | 19.4 | 14.7 | 33.7 | 39 | 98.8
[22] | -16.2 | -10.9 | 2.3 | 30.8 | 65.3
[23] | 2.23 | 21.8 | 69.6 | 92 | 99.9
[24] | 8.27 | 10.8 | 38.5 | 76.5 | 86.5
[25] | 1.08 | -1.02 | 20.1 | 62.4 | 85
[26] | 2.41 | 2.54 | 15.7 | 68.3 | 103
[27] | -6.01 | 3.97 | 27.8 | 42.7 | 60.2
